≈ marks a conversion by molar mass, not a printed value.
Experiments:
Assay type in all cases: functional
Staphylococcus aureus [1] = experiment: Antibacterial activity against Staphylococcus aureus ATCC 29213 assessed growth inhibition by micro broth dilution method
Staphylococcus aureus [2] = experiment: Antibacterial activity against methicillin-resistant Staphylococcus aureus assessed growth inhibition by micro broth dilution method
Pseudomonas aeruginosa [3] = experiment: Antibacterial activity against Pseudomonas aeruginosa ATCC 27853 assessed growth inhibition by micro broth dilution method
Staphylococcus aureus [4] = experiment: Antibacterial activity against Staphylococcus aureus ATCC 25923 assessed growth inhibition by micro broth dilution method
Pseudomonas aeruginosa [5] = experiment: Antibacterial activity against Pseudomonas aeruginosa assessed growth inhibition by micro broth dilution method
Klebsiella pneumoniae = experiment: Antibacterial activity against Klebsiella pneumonia assessed growth inhibition by micro broth dilution method
Escherichia coli [6] = experiment: Antibacterial activity against Escherichia coli ATCC 25922 assessed growth inhibition by micro broth dilution method
Staphylococcus aureus [7] = experiment: Antibacterial activity against Staphylococcus aureus assessed growth inhibition by micro broth dilution method
Enterococcus faecalis = experiment: Antibacterial activity against Enterococcus faecalis assessed growth inhibition by micro broth dilution method
Escherichia coli [8] = experiment: Antibacterial activity against Escherichia coli assessed growth inhibition by micro broth dilution method
Acinetobacter baumannii = experiment: Antibacterial activity against Acinetobacter baumannii assessed growth inhibition by micro broth dilution method

SMILES	MIC (Staphylococcus aureus [1]) [mg/L]	MIC (Staphylococcus aureus [2]) [mg/L]	MIC (Pseudomonas aeruginosa [3]) [mg/L]	MIC (Staphylococcus aureus [4]) [mg/L]	MIC (Pseudomonas aeruginosa [5]) [mg/L]	MIC (Klebsiella pneumoniae) [mg/L]	MIC (Escherichia coli [6]) [mg/L]	MIC (Staphylococcus aureus [7]) [mg/L]	MIC (Enterococcus faecalis) [mg/L]	MIC (Escherichia coli [8]) [mg/L]	MIC (Acinetobacter baumannii) [mg/L]
CCOC(=O)C(C#N)c1c(F)cc2c(=O)c(C(=O)O)cn(CC)c2c1F (configuration not stated)	32 (≈ 87.8 µM)	16 (≈ 43.9 µM)	4 (≈ 11 µM)	32 (≈ 87.8 µM)	64 (≈ 176 µM)	4 (≈ 11 µM)	2 (≈ 5.49 µM)	16 (≈ 43.9 µM)	128 (≈ 351 µM)	64 (≈ 176 µM)	0.5 (≈ 1.37 µM)
C=CCn1cc(C(=O)OCC)c(=O)c2cc(F)c([C-](C#N)C(=O)OCC)cc21.[Na+] (configuration not stated)	32	128	16	2	16	32	16	128	64	32	16
CCOC(=O)c1cn(C)c2cc([C-](C#N)C(=O)OCC)c(F)cc2c1=O.[Na+] (configuration not stated)	64	64	32	1	32	32	16	128	32	32	32
CCOC(=O)c1cn(Cc2ccccc2Cl)c2cc([C-](C#N)C(=O)OCC)c(F)cc2c1=O.[Na+] (configuration not stated)	2	64	2	0.5	16	4	2	256	1	0.25	32
CCOC(=O)c1cn(CC(N)=O)c2cc([C-](C#N)C(=O)OCC)c(F)cc2c1=O.[Na+] (configuration not stated)	256	256	256	256	256	256	256	256	256	256	256
CCOC(=O)C(C#N)c1cc2c(cc1F)c(=O)c(C(=O)O)cn2Cc1ccc(Cl)c(Cl)c1 (configuration not stated)	64 (≈ 134 µM)	32 (≈ 67 µM)	4 (≈ 8.38 µM)	32 (≈ 67 µM)	16 (≈ 33.5 µM)	4 (≈ 8.38 µM)	0.5 (≈ 1.05 µM)	64 (≈ 134 µM)	128 (≈ 268 µM)	128 (≈ 268 µM)	16 (≈ 33.5 µM)
CCOC(=O)c1cn(CC)c2c(F)c([C-](C#N)C(=O)OCC)c(F)cc2c1=O.[Na+] (configuration not stated)	16	32	16	16	64	16	1	16	32	64	32

— ChEMBL document CHEMBL5528028, “Discovery of benzopyridone cyanoacetates as new type of potential broad-spectrum antibacterial candidates” (Eur J Med Chem, 2024)
